{"source": "patent US4200755A", "about": "“2-Hydro xy-5-[1-hydroxy-2-[4-(2-oxo-1-benzimidazolinyl)piperidino]ethyl]benzoic acid derivatives” (Richardson-Merrell Inc., priority 1979, dated 1980)", "key": {"α-adrenergic receptor": {"test_system": "α-adrenergic receptor", "assay": "α-Adrenergic receptor blocking activity in vitro, isolated rabbit aortic strip preparation, norepinephrine as agonist", "assay_type": "cell-based", "experimental": "(§1) The following Example is illustrative of the α and β-adrenergic blocking activity and the direct spasmolytic activity for the compounds of this invention.\nα-Adrenergic receptor blocking activity is determined in vitro by performing cumulative dose-response experiments in the isolated rabbit aortic strip preparation using norepinephrine as the agonist. The contractile response of the rabbit strip preparation in the presence of logarithmically increasing concentrations of the compounds being tested are expressed as percent of the maximal attainable response. Relative antagonistic potency is expressed as a pA2 value."}, "β-adrenergic receptor": {"target": "T1, β-adrenergic receptor (Cavia porcellus, UniProt H0W3H1)", "T1 construct": "isolated guinea pig atria preparation; from tissue; host or cells: guinea pig atria", "T1 sequence (H0W3H1 1-470)": "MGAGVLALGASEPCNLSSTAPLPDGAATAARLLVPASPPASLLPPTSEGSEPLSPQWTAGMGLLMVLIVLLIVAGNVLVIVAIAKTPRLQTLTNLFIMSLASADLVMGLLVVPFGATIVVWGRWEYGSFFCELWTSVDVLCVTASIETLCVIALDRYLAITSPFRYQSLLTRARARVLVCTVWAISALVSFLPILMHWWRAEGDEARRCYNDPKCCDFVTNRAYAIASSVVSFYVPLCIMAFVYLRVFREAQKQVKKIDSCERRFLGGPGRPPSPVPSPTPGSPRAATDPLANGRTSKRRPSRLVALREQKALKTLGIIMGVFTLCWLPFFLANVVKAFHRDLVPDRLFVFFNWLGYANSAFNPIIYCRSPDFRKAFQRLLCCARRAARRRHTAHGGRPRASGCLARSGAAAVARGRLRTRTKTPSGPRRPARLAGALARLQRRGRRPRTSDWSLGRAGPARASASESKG", "assay": "β-Adrenergic receptor blocking activity in vitro, isolated guinea pig atria preparation, isoproterenol as agonist", "assay_type": "cell-based", "settings": "isolated guinea pig atria (increase in rate), read-out: pA2 β (converted)", "experimental": "as §1\nβ-Adrenergic receptor blocking activity is determined in vitro by performing cumulative dose-response experiments in the isolated guinea pig atria preparation using isoproterenol as the agonist. The response (increase in rate) of the guinea pig atria preparation in the presence of logarithmically increasing concentrations of the compounds being tested are expressed as percent of the maximal attainable response. Relative antagonistic potency is expressed as a pA2 value, as defined above."}, "[1]": {"test_system": "isolated guinea pig ileum preparation", "assay": "Direct spasmolytic activity in vitro, isolated guinea pig ileum preparation, barium chloride as agonist", "assay_type": "cell-based", "experimental": "as §1\nDirect spasmolytic activity is determined in vitro by performing cumulative dose response experiments in the isolated guinea pig ileum preparation using barium chloride as the agonist. The contractile response of the guinea pig ileum preparation in the presence of logarithmically increasing concentrations of the compounds being tested are expressed as percent of the maximal attainable response. Relative antagonistic potency is expressed as a pA2 value, as defined above."}, "[2]": {"test_system": "spontaneously hypertensive rats (SHR)", "assay": "Antihypertensive activity in spontaneously hypertensive rats (SHR), systolic blood pressure", "assay_type": "in vivo, rat (SHR, Okomoto-Aoki strain)", "settings": "oral 50 mg/kg", "experimental": "The following Example illustrates the antihypertensive activity for the compounds of this invention. Antihypertensive activity is determined in spontaneously hypertensive rats (SHR) of the Okomoto-Aoki strain. Systolic blood pressure of the SHR is measured from the caudal artery by means of an indirect method utilizing a photocell transducer/tail cuff occluder system. Time response relationships are determined for each compound following an oral dose of 50 mg/kg. Data are expressed as mm of Hg decrease from control values. Statistical significance is determined using a 2 tailed \"t\" test comparing drug treatment response values to those obtained from concurrent vehicle treated animals."}}, "note": "Counter-ions that a name gives are not always drawn."}
{"smiles": "COC(=O)c1cc(C(O)CN2CCC(n3c(=O)[nH]c4ccccc43)CC2)ccc1O", "note": "(stereo not drawn) [Compound 1, methyl 2-hydroxy-5-[1-hydroxy-2-[4-(2-oxo-1-benzimidazolinyl)piperidino]ethyl]benzoate hydrochloride]", "values": [{"measurement": "pA2 α", "setting": "α-adrenergic receptor", "result": 6.94}, {"measurement": "Kb", "setting": "β-adrenergic receptor", "result": 1.95, "unit": "µM"}, {"measurement": "pA2 BaCl2 (Direct Spasmolytic Activity)", "setting": "[1]", "result": 5.90}]}
{"smiles": "NC(=O)c1cc(C(O)CN2CCC(n3c(=O)[nH]c4ccccc43)CC2)ccc1O", "note": "(stereo not drawn) [Compound 2, 2-hydroxy-5-[1-hydroxy-2-[4-(2-oxo-1-benzimidazolinyl)piperidino]ethyl]benzamide hydrochloride monohydrate]", "values": [{"measurement": "pA2 α", "setting": "α-adrenergic receptor", "result": 6.70}, {"measurement": "Kb", "setting": "β-adrenergic receptor", "result": 3.55, "unit": "µM"}, {"measurement": "pA2 BaCl2 (Direct Spasmolytic Activity)", "setting": "[1]", "result": "< 4.20"}]}
{"smiles": "CCNC(=O)c1cc(C(O)CN2CCC(n3c(=O)[nH]c4ccccc43)CC2)ccc1O", "note": "(stereo not drawn) [Compound 3, 2-hydroxy-5-[1-hydroxy-2-[4-(2-oxo-1-benzimidazolinyl)piperidino]ethyl]-N-ethylbenzamide hydrochloride]", "values": [{"measurement": "pA2 α", "setting": "α-adrenergic receptor", "result": 6.63}, {"measurement": "Kb", "setting": "β-adrenergic receptor", "result": "> 4.17", "unit": "µM"}, {"measurement": "pA2 BaCl2 (Direct Spasmolytic Activity)", "setting": "[1]", "result": 5.16}, {"measurement": "lowers blood pressure (decrease from control values)", "setting": "[2]; after 1 hour", "result": 22, "unit": "mm Hg"}, {"measurement": "lowers blood pressure (decrease from control values)", "setting": "[2]; after 4 hours", "result": 51, "unit": "mm Hg"}]}
{"smiles": "Cc1ccc(N(CC2=NCCN2)c2cccc(O)c2)cc1", "note": "[phentolamine, reference compound]", "values": [{"measurement": "Kb", "setting": "β-adrenergic receptor", "result": "> 10", "unit": "µM"}]}
